# From patent publication US20250177481A1, “SCO-spondin-derived polypeptides for enhancing synaptic transmission” (AXOLTIS PHARMA, priority 2021, published 2025)
# Where “and” joins values, the source holds several entries; their conditions need not be identical. Equal values may be shown once. Positions of bridges follow the written chain, without caps; N, C: chain ends. No end group written: not given here.
# Legend:
# [1] = system: subchronic PCP-induced cognitive deficits in mice; test: T-maze continuous alternation task in subchronic PCP mice; assay type: in vivo, Swiss CD-1 mice; details: PCP alone 30.71, control 66.43, 5 mg/kg
# From the text: Phenycyclidine (PCP) is an antagonist of NMDA receptor, its administration in healthy humans produces schizophrenia-like symptoms, therefore PCP is often used to mimic schizophrenia in rodents. […] In addition, brain samples were collected shorlty after the T-Maze test to measure the levels of cerebral biomarkers involved in synaptic plasticity.
# Sixty (60) male Swiss CD-1 mice were purchased from Janvier Labs (Le Genest-Saint-Isle, France) one week before the start of the study for acclimation. Mice were group-housed (6-8 mice per Eurostandard type Ill cage) and maintained in a room with controlled temperature (21-22° C.) under a reversed 12 h/12 h light-dark cycle (lights on: 5:[…]; lights off: 05:30 am) with food and water available ad libitum. The weight of mice ranged from 25.9 and 36.4 g. […]
# Nicotine used as a positive control was administered at a dose of 0.4 mg/kg intraperitoneally 30 minutes prior to the T-maze trial
# After administration of compounds at different timepoints all animals were tested for continuous alternation task in the T-Maze. The T-maze apparatus was made of gray Plexiglas with a main stem (55-cm long×10-cm wide×20-cm high) and two arms (30-cm long×10-cm wide×20-cm high) positioned at a 90-degree angle relative to the main stem. A start box (15-cm long×10-cm wide) was separated from the main stem by a guillotine door. Horizontal doors were also provided to close specific arms during the force choice alternation task. The experimental protocol consisted in one single session that started with 1 “forced-choice” trial, followed by 14 “free-choice” trials (Gerlai, 1998). In the first “forced-choice” trial, the mouse was confined 5 s in the start arm and then released while either the left or right goal arm was blocked by closing the sliding door. Then, it walked through the maze, eventually entered the open goal arm, and then returned to the start position. Immediately after the mouse came back to the start position, the left or right goal door was opened (i.e. the two goal doors were opened), and the mouse could choose freely between the left and right goal arms (first “free choice trial”). The mouse was considered as entered in the arm when it placed its four paws in the arm. The opposite goal door was then closed until the animal returned to the start arm. Then, a second “free choice trial” began by the opening of the closed goal door (i.e. the two goal doors were opened), leaving the choice to the mouse to enter either into the right or the left arm. The session was considered finished as soon as 14 free-choice trials had been performed in less than 10 min, and the mouse was removed from the maze. The time needed to reach these 14 “free-choices” was recorded.
# The percent of spontaneous alternations was calculated as number of spontaneous alternations divided by the number of free-choice trials, an index of spatial short-term working memory. The apparatus was cleaned between each animal using alcohol (70%). Urine and feces were removed from the maze. During the trials, animal handling and the visibility of the operator were minimized as much as possible. Animals were tested in a random and blind manner.
# GluN2A = GluN2A level in cortical samples of subchronic PCP mice (WES automated protein analysis); assay type: in vivo, Swiss CD-1 mice; details: PCP + NX218 5 mg/kg D14; PCP alone 73.44; n=5
# Description: PCP (or saline for control group) was administered at a dose of 0.2 mg/kg by subcutaneous injections twice daily for 12 days (day 0 to day 11).
# Approximately 5 minutes after the test, mice were anaesthetized with 5% isoflurane oxygen mixture. Brains were extracted immediately, then the cortex of each hemisphere were collected. Right and left cortices were transferred into clean pre-labelled microtubes and the exact weight of each sample was recorded. Finally, samples were stored at −80° C. for further analysis.
# Brain samples were lysed with a defined buffer lysis consisting of CelLyticMT reagent with 1% of protease and phosphatase inhibitor cocktail (60 μL per well). Lysates were processed at +4° C. and stored at −80° C. at the end of the experiment. For each sample, the quantity of proteins was determined using the micro kit BCA (Pierce). Briefly, lysates were centrifuged and diluted at 1/20 in PBS and mixed, in equal volume, with a micro BCA. After an incubation at 60° C. for 1 hour, the quantity of proteins was measured at 562 nm with a spectrophotometer Nanovue (GE Healthcare) and compared with the standard of Bovine Serum Albumin curve (BSA, Pierce).
# Automated protein analysis were performed using the WES™ system (ProteinSimple®): […]
# Each protein was evaluated independently. […] 5 samples (biological replicates) per condition were analyzed.
substance,measurement,setting,value
W-S-G-W-S-S-C-S-R-S-C-G [NX218] (WSGWSSCSRSCG; disulfide 7-11 (inferred)),Spontaneous alternations in T-maze,"[1]; PCP + 5 mg/kg i.p. on D12, D13 and D14 (48 h, 24 h and 2 h before trial), n=10",62% and 62.13%
same,Spontaneous alternations in T-maze,"[1]; PCP + 5 mg/kg i.p. on D13 (24 h before trial), n=9",35% and 34.92%
same,Spontaneous alternations in T-maze,"[1]; PCP + 5 mg/kg i.p. on D14 (2 h before trial), n=10",53% and 52.87%
same,GluN2A level in cortical samples,GluN2A,116.46 % of control
